In PubChem BioAssay (NCI):
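Compound exposure: 48 hours, 5 concentrations, 96-well plates. TGI: concentration producing complete growth inhibition.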

Assays:
Assay in all cases: inhibition of tumour cell growth, NCI panel, 48 h
A498 renal = system: A498 renal
A549 NSCLC = system: A549 NSCLC
ACHN renal = system: ACHN renal
HOP-62 NSCLC = system: HOP-62 NSCLC
HS 578T breast = system: HS 578T breast
KM12 colon = system: KM12 colon
RPMI-8226 leukemia = system: RPMI-8226 leukemia
SK-MEL-28 melanoma = system: SK-MEL-28 melanoma
T-47D breast = system: T-47D breast
TK-10 renal = system: TK-10 renal

Compound	TGI (A498 renal)	TGI (A549 NSCLC)	TGI (ACHN renal)	TGI (HOP-62 NSCLC)	TGI (HS 578T breast)	TGI (KM12 colon)	TGI (RPMI-8226 leukemia)	TGI (SK-MEL-28 melanoma)	TGI (T-47D breast)	TGI (TK-10 renal)
CN(C)c1ccc(/C=C(\NC(=O)c2ccccc2)C(=O)NC(CC(=O)O)C(=O)O)cc1 (stereo not given)	> 100 µM	> 100 µM	> 100 µM	> 100 µM	> 100 µM	> 100 µM	> 100 µM	> 100 µM	> 100 µM	> 100 µM
CCOC(=O)CSc1nc(N)c2c(-c3ccccc3)c3c(nc2n1)CCCC3	> 100 µM	> 100 µM	> 100 µM	> 100 µM	> 100 µM	> 100 µM	> 100 µM	> 100 µM	> 100 µM	> 100 µM
S=C(Cc1ccc2c(c1)Sc1ccccc1O2)N1CCOCC1	> 100 µM	> 100 µM	> 100 µM	> 100 µM	61.6 µM	> 100 µM	> 100 µM	> 100 µM	> 100 µM	> 100 µM
CC1=CC2C3(C)C(C)(C(C)=CP3(=O)c3c(C(C)C)cc(C(C)C)cc3C(C)C)C1P2(=O)c1c(C(C)C)cc(C(C)C)cc1C(C)C (stereo not given)	6.26 µM	9.08 µM	8.96 µM	10.4 µM	6.25 µM	4.05 µM	3.02 µM	8.23 µM	10.9 µM	7.34 µM
O=C(CCc1cc(O)cc(O)c1)NCCc1cc(OCc2ccccc2)cc(OCc2ccccc2)c1	42.8 µM	23.6 µM	15.6 µM	36.8 µM	48.7 µM	28.1 µM	54 µM	55 µM	39.3 µM	46.2 µM
O=c1ccc2ccc(S)cc2o1	> 100 µM	> 100 µM	> 100 µM	> 100 µM	> 100 µM	> 100 µM	> 100 µM	> 100 µM	> 100 µM	> 100 µM
CC(C)NC(=O)OCc1c(COC(=O)NC(C)C)n(C)c2c1ccc1sccc12	52.3 µM	> 54.2 µM	> 63.8 µM	46.4 µM	34.6 µM	31.2 µM	> 58.8 µM	57.3 µM	47.2 µM	75.6 µM
COc1cccc(C2c3cc4c(cc3OC(O)C2C)OCO4)c1OC (stereo not given)	16.2 µM	26 µM	30.8 µM	80.1 µM	32.8 µM	33.9 µM	14.6 µM	39.5 µM	40.7 µM	52 µM
Cc1c(C)n(-c2ccccc2)c2nc(S(C)=O)nc(S(C)=O)c12 (stereo not given)	26.9 µM	31.7 µM	18.5 µM	36.5 µM	70.5 µM	28.1 µM	5.28 µM	14.9 µM	8.62 µM	7.36 µM
Cc1nc(N)c(N2CCN(C#N)CC2)c(=O)[nH]1	> 100 µM	> 100 µM	> 100 µM	> 100 µM	> 100 µM	> 100 µM	> 100 µM	> 100 µM	> 100 µM	> 100 µM
CC(C)Oc1cccc(N2C(n3ccnc3)=Nc3ccncc3S2(=O)=O)c1	31.8 µM	37.2 µM	21.6 µM	33.6 µM	38.5 µM	49.5 µM	12.3 µM	33 µM	41.5 µM	24.5 µM
O=C(NCc1ccccc1)c1cc2ccccc2oc1=Nc1cccc(C(F)(F)F)c1	> 100 µM	> 100 µM	> 100 µM	> 100 µM	> 100 µM	> 100 µM	> 100 µM	> 100 µM	> 100 µM	> 100 µM
